# Laboratory results published in patent publication US6737383B1, “Herbicidal oxadiazolidines” (priority 1999, dated 2004).
# Tests used:
# [1] = system: blackgrass; assay: Test B pre/postemergence blackgrass; format: in vivo, Alopecurus myosuroides
# Procedure, shortened: (§1)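 Response is a visual 0-to-10 score relative to untreated plants, where 0 means no effect and 10 means complete control, taken twelve to sixteen days after application. Treatments went onto soil at planting and onto foliage of 1- to 4-leaf plants, using a surfactant-containing non-phytotoxic solvent.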
# [2] = system: surinam grass; assay: Test B pre/postemergence surinam grass; format: in vivo, Brachiaria decumbens
# Procedure, shortened: as §1
# [3] = system: cocklebur; assay: Test B pre/postemergence cocklebur; format: in vivo, Xanthium strumarium
# Procedure, shortened: as §1
# [4] = system: corn; assay: Test B pre/postemergence corn; format: in vivo, Zea mays
# Procedure, shortened: as §1
# [5] = system: crabgrass; assay: Test B pre/postemergence crabgrass; format: in vivo, Digitaria sanguinalis
# Procedure, shortened: as §1
# [6] = system: giant foxtail; assay: Test B pre/postemergence giant foxtail; format: in vivo, Setaria faberii
# Procedure, shortened: as §1
# [7] = system: morningglory; assay: Test B pre/postemergence morningglory; format: in vivo, Ipomoea hederacea
# Procedure, shortened: as §1
# [8] = system: pigweed; assay: Test B pre/postemergence pigweed; format: in vivo, Amaranthus retroflexus
# Procedure, shortened: as §1
# [9] = system: rape; assay: Test B pre/postemergence rape; format: in vivo, Brassica napus
# Procedure, shortened: as §1
# [10] = system: soybean; assay: Test B pre/postemergence soybean; format: in vivo, Glycine max
# Procedure, shortened: as §1
# [11] = system: sugar beet; assay: Test B pre/postemergence sugar beet; format: in vivo, Beta vulgaris
# Procedure, shortened: as §1
# [12] = system: velvetleaf; assay: Test B pre/postemergence velvetleaf; format: in vivo, Abutilon theophrasti
# Procedure, shortened: as §1
# [13] = system: wheat; assay: Test B pre/postemergence wheat; format: in vivo, Triticum aestivum
# Procedure, shortened: as §1
# [14] = system: wild oat; assay: Test B pre/postemergence wild oat; format: in vivo, Avena fatua
# Procedure, shortened: as §1
# [15] = system: purple nutsedge; assay: Test B pre/postemergence purple nutsedge; format: in vivo, Cyperus rotundus
# Procedure, shortened: as §1
# [16] = system: rice; assay: Test B flood test rice; format: in vivo, Oryza sativa
# Procedure, shortened: (§2)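 Flood test on plants grown to the 2-leaf stage; treated plants kept in greenhouse twelve to sixteen days, then visually rated against controls on a 0 (no effect) to 10 (complete control) scale.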
# [17] = system: smallflower flatsedge; assay: Test B flood test smallflower flatsedge; format: in vivo, Cyperus difformis
# Procedure, shortened: as §2
# [18] = system: duck salad; assay: Test B flood test duck salad; format: in vivo, Heteranthera limosa
# Procedure, shortened: as §2
# [19] = system: bamyardgrass; assay: Test B flood test barnyardgrass; format: in vivo, Echinochloa crus-galli
# Procedure, shortened: as §2
# [20] = Postemergence, Rate 62 g/ha, scale 0 to 10, 0 is no effect, 10 is complete control
# [21] = Postemergence, Rate 125 g/ha, scale of 0 to 10 where 0 is no effect and 10 is complete control
# [22] = Postemergence, Rate 250 g/ha, scale of 0 to 10, 0 is no effect, 10 is complete control
# [23] = Preemergence, Rate 62 g/ha, scale of 0 to 10 where 0 is no effect and 10 is complete control
# [24] = Preemergence, Rate 125 g/ha, scale of 0 to 10 where 0 is no effect and 10 is complete control
# [25] = Preemergence, Rate 250 g/ha, scale 0 to 10 (0 no effect, 10 complete control)
# [26] = Preemergence, Rate 500 g/ha, scale of 0 to 10 where 0 is no effect and 10 is complete control
# [27] = Rate 500 g/ha, Postemergence, scale 0 to 10, 0 is no effect, 10 is complete control
# [28] = Rate 62 g/ha, flood test species, Pre-emergence, visual evaluation after twelve to sixteen days
# [29] = Rate 125 g/ha, under heading Pre-emergence, flood test species, visual evaluation after twelve to sixteen days
# [30] = Rate 250 g/ha, Pre-emergence (flood test species), scale 0 to 10, 0 is no effect, 10 is complete control
# [31] = Rate 500 g/ha, Pre-emergence section of Table B, 0 to 10 scale (0 no effect, 10 complete control)
smiles,measurement,setting,value
CC(C)N(C(=O)n1oc(=O)n(C(C)C)c1=O)c1ccncc1 [Compound 663],"Plant response rating, Blackgrass",[1]; [20],0
same,Blackgrass plant response rating,[1]; [21],0
same,Blackgrass plant response rating,[1]; [22],0
same,Blackgrass plant response rating,[1]; [23],0
same,Blackgrass plant response rating,[1]; [24],0
same,"Plant response rating, Blackgrass",[1]; [25],0
same,"Plant response rating, Blackgrass",[1]; [26],0
same,Blackgrass plant response rating,[1]; [27],2
same,"Plant response rating, B. signalgrass",[2]; [20],0
same,"Plant response rating, B. signalgrass",[2]; [21],0
same,B. signalgrass plant response rating,[2]; [22],0
same,B. signalgrass plant response rating,[2]; [23],0
same,B. signalgrass plant response rating,[2]; [24],0
same,"Plant response rating, B. signalgrass",[2]; [25],0
same,"Plant response rating, B. signalgrass",[2]; [26],0
same,B. signalgrass plant response rating,[2]; [27],0
same,"Plant response rating, Cocklebur",[3]; [20],0
same,Cocklebur plant response rating,[3]; [21],0
same,Cocklebur plant response rating,[3]; [22],0
same,Cocklebur plant response rating,[3]; [23],0
same,Cocklebur plant response rating,[3]; [24],0
same,"Plant response rating, Cocklebur",[3]; [25],0
same,"Plant response rating, Cocklebur",[3]; [26],0
same,Cocklebur plant response rating,[3]; [27],2
same,"Plant response rating, Corn",[4]; [20],0
same,Corn plant response rating,[4]; [21],0
same,Corn plant response rating,[4]; [22],0
same,Corn plant response rating,[4]; [23],0
same,Corn plant response rating,[4]; [24],0
same,"Plant response rating, Corn",[4]; [25],0
same,"Plant response rating, Corn",[4]; [26],0
same,Corn plant response rating,[4]; [27],0
same,"Plant response rating, Crabgrass",[5]; [20],0
same,Crabgrass plant response rating,[5]; [21],0
same,Crabgrass plant response rating,[5]; [22],0
same,Crabgrass plant response rating,[5]; [23],0
same,Crabgrass plant response rating,[5]; [24],0
same,"Plant response rating, Crabgrass",[5]; [25],0
same,"Plant response rating, Crabgrass",[5]; [26],0
same,Crabgrass plant response rating,[5]; [27],4
same,"Plant response rating, Giant foxtail",[6]; [20],0
same,Giant foxtail plant response rating,[6]; [21],0
same,Giant foxtail plant response rating,[6]; [22],0
same,Giant foxtail plant response rating,[6]; [23],0
same,Giant foxtail plant response rating,[6]; [24],3
same,"Plant response rating, Giant foxtail",[6]; [25],5
same,"Plant response rating, Giant foxtail",[6]; [26],9
same,Giant foxtail plant response rating,[6]; [27],4
same,"Plant response rating, Morningglory",[7]; [20],0
same,Morningglory plant response rating,[7]; [21],0
same,Morningglory plant response rating,[7]; [22],4
same,Morningglory plant response rating,[7]; [23],0
same,Morningglory plant response rating,[7]; [24],0
same,"Plant response rating, Morningglory",[7]; [25],0
same,"Plant response rating, Morningglory",[7]; [26],7
same,Morningglory plant response rating,[7]; [27],4
same,"Plant response rating, Redroot pigweed",[8]; [20],0
same,Redroot pigweed plant response rating,[8]; [21],0
same,Redroot pigweed plant response rating,[8]; [23],0
same,Redroot pigweed plant response rating,[8]; [24],0
same,"Plant response rating, Redroot pigweed",[8]; [25],7
same,"Plant response rating, Redroot pigweed",[8]; [26],7
same,Redroot pigweed plant response rating,[8]; [27],0
same,"Plant response rating, Rape",[9]; [20],0
same,Rape plant response rating,[9]; [21],0
same,Rape plant response rating,[9]; [23],0
same,Rape plant response rating,[9]; [24],0
same,"Plant response rating, Rape",[9]; [25],0
same,"Plant response rating, Rape",[9]; [26],4
same,Rape plant response rating,[9]; [27],0
same,Soybean plant response rating,[10]; [21],0
same,Soybean plant response rating,[10]; [23],0
same,Soybean plant response rating,[10]; [24],0
same,"Plant response rating, Soybean",[10]; [25],0
same,"Plant response rating, Soybean",[10]; [26],2
same,"Plant response rating, Sugarbeets",[11]; [20],0
same,Sugarbeets plant response rating,[11]; [21],0
same,Sugarbeets plant response rating,[11]; [23],0
same,Sugarbeets plant response rating,[11]; [24],0
same,"Plant response rating, Sugarbeets",[11]; [25],0
same,"Plant response rating, Sugarbeets",[11]; [26],0
same,Sugarbeets plant response rating,[11]; [27],4
same,"Plant response rating, Velvetleaf",[12]; [20],0
same,Velvetleaf plant response rating,[12]; [21],0
same,Velvetleaf plant response rating,[12]; [23],0
same,Velvetleaf plant response rating,[12]; [24],0
same,"Plant response rating, Velvetleaf",[12]; [25],0
same,"Plant response rating, Velvetleaf",[12]; [26],3
same,Velvetleaf plant response rating,[12]; [27],2
same,"Plant response rating, Wheat",[13]; [20],0
same,Wheat plant response rating,[13]; [21],0
same,Wheat plant response rating,[13]; [23],0
same,Wheat plant response rating,[13]; [24],0
same,"Plant response rating, Wheat",[13]; [25],0
same,"Plant response rating, Wheat",[13]; [26],3
same,Wheat plant response rating,[13]; [27],0
same,"Plant response rating, Wild oats",[14]; [20],0
same,Wild oats plant response rating,[14]; [21],0
same,Wild oats plant response rating,[14]; [23],0
same,Wild oats plant response rating,[14]; [24],0
same,"Plant response rating, Wild oats",[14]; [25],0
same,"Plant response rating, Wild oats",[14]; [26],0
same,Wild oats plant response rating,[14]; [27],0
same,"Plant response rating, Nutsedge",[15]; [20],0
same,Nutsedge plant response rating,[15]; [21],0
same,Nutsedge plant response rating,[15]; [23],0
same,Nutsedge plant response rating,[15]; [24],0
same,"Plant response rating, Nutsedge",[15]; [25],0
same,"Plant response rating, Nutsedge",[15]; [26],0
same,Nutsedge plant response rating,[15]; [27],0
same,"Plant response rating, Rice (0 to 10 scale, 0 is no effect, 10 is complete control)",[16]; [28],0
same,"Rice plant response rating (0 to 10 scale, 0 is no effect, 10 is complete control)",[16]; [29],0
same,Rice plant response rating,[16]; [30],0
same,Rice plant response rating,[16]; [31],0
same,"Plant response rating, S. Flatsedge (0 to 10 scale, 0 is no effect, 10 is complete control)",[17]; [28],0
same,"S. Flatsedge plant response rating (0 to 10 scale, 0 is no effect, 10 is complete control)",[17]; [29],0
same,S. Flatsedge plant response rating,[17]; [30],0
same,S. Flatsedge plant response rating,[17]; [31],0
same,"Plant response rating, Ducksalad (0 to 10 scale, 0 is no effect, 10 is complete control)",[18]; [28],0
same,"Ducksalad plant response rating (0 to 10 scale, 0 is no effect, 10 is complete control)",[18]; [29],0
same,Ducksalad plant response rating,[18]; [30],0
same,Ducksalad plant response rating,[18]; [31],0
same,"Plant response rating, Barnyardgrass (0 to 10 scale, 0 is no effect, 10 is complete control)",[19]; [28],0
same,"Barnyardgrass plant response rating (0 to 10 scale, 0 is no effect, 10 is complete control)",[19]; [29],0
same,Barnyardgrass plant response rating,[19]; [30],0
same,Barnyardgrass plant response rating,[19]; [31],0
